The record followed here is PubChem BioAssay (NCI).

Some test systems named below: 786-0 renal; ACHN renal; CCRF-CEM leukemia; NCI-H23 lung; NCI-H460 lung; OVCAR-4 ovarian; SNB-19 CNS; RXF 393 renal; TK-10 renal.
Common to all, as to assay: growth of human tumour cells (NCI), 48 h

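Tested at 5 concentrations; 48 h exposure; 96-well plates; endpoints linearly interpolated, else capped at highest concentration. The concentration for 50% growth inhibition is given as GI50. TGI is the concentration that stops growth completely.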

Regarding `COc1ccc(CCc2cc(OC)c(O)c(OC)c2)cc1`, the TGI with 786-0 renal, in the test on ACHN renal, in the test with CCRF-CEM leukemia, in the test on NCI-H23 lung, in the test on NCI-H460 lung and with OVCAR-4 ovarian was greater than 100 µM each time. The compound also had a TGI in the test on SNB-19 CNS greater than 100 µM.
On to `C[Si](C)(C)C(Sc1ccccc1)(Sc1ccccc1)Sc1ccccc1`, for which the TGI with 786-0 renal, in the test with ACHN renal, with CCRF-CEM leukemia, in the test on NCI-H23 lung, with NCI-H460 lung and with OVCAR-4 ovarian was greater than 100 µM in each case. The TGI in the test with RXF 393 renal, in the test on SNB-19 CNS and in the test on TK-10 renal was greater than 100 µM each time.
In the case of `CCOC(=O)c1cccnc1C(OC(C)=O)OC(C)=O`, the TGI with 786-0 renal, with ACHN renal, with CCRF-CEM leukemia, in the test on NCI-H23 lung, in the test with NCI-H460 lung and in the test with OVCAR-4 ovarian was greater than 100 µM each time. Further, the TGI in the test on RXF 393 renal, with SNB-19 CNS and in the test on TK-10 renal was greater than 100 µM in each case.
In the case of `COC(=O)C(=O)C(C(=O)C(=O)Nc1cc(C)ccc1C)c1nc2ccc(C(=O)c3ccccc3)cc2[nH]c1=O` (centres undefined), the TGI with 786-0 renal, in the test on ACHN renal, in the test on CCRF-CEM leukemia, with NCI-H23 lung, with OVCAR-4 ovarian and in the test with RXF 393 renal was greater than 100 µM throughout. Further, the TGI in the test with SNB-19 CNS and in the test on TK-10 renal was greater than 100 µM each time.
With `O=C1C2C3C=CC(C2C(=O)N1CN1CCSCC1)C1C2C(=O)N(CN4CCSCC4)C(=O)C2C31` (centres undefined), the TGI with 786-0 renal was greater than 79.2 µM; in the test on ACHN renal it was greater than 100 µM; in the test on CCRF-CEM leukemia, greater than 100 µM; with NCI-H23 lung it was greater than 100 µM; in the test with NCI-H460 lung, greater than 57.3 µM; with OVCAR-4 ovarian it was greater than 100 µM. Further, the TGI in the test with RXF 393 renal, with SNB-19 CNS and in the test with TK-10 renal was greater than 100 µM each time. Also, the GI50 in the test with CCRF-CEM leukemia was 35.1 µM; in the test on NCI-H460 lung, 40 µM.
With `O=c1cc(-c2ccccc2)[nH]c2cc(Cl)ccc12`, the TGI in the test on 786-0 renal was 12.1 µM; with ACHN renal, 31 µM; in the test on CCRF-CEM leukemia it was 11.4 µM; in the test on NCI-H23 lung it was 4.35 µM; in the test with NCI-H460 lung, 14.8 µM; in the test with OVCAR-4 ovarian, greater than 100 µM. In addition, the TGI in the test with RXF 393 renal was 1.08 µM; in the test with SNB-19 CNS it was 6.44 µM; in the test with TK-10 renal, greater than 100 µM.
On to `COC(=O)/C(=N\NC(N)=O)C(C(=O)C=C(C)C)C(=O)C(=O)Nc1ccc(Cl)c(Cl)c1` (centres undefined), for which the TGI in the test with 786-0 renal, in the test with ACHN renal, with CCRF-CEM leukemia, in the test with NCI-H23 lung, with NCI-H460 lung and in the test on OVCAR-4 ovarian was greater than 100 µM throughout. In addition, the TGI in the test on RXF 393 renal, in the test on SNB-19 CNS and in the test with TK-10 renal was greater than 100 µM each time.
For the compound `C=C(CCCO)[C@@H]1CC[C@@](C)(O)[C@H]1C`, the TGI in the test with 786-0 renal, with ACHN renal, with NCI-H23 lung, in the test on NCI-H460 lung, in the test on OVCAR-4 ovarian and with RXF 393 renal was greater than 100 µM throughout. Besides, the TGI with SNB-19 CNS and in the test with TK-10 renal was greater than 100 µM in each case.
As for `CCOC(=O)C(=O)Nc1ccccc1C(C)C`, the TGI in the test on 786-0 renal, with ACHN renal, in the test with CCRF-CEM leukemia, with NCI-H23 lung, in the test on NCI-H460 lung and with OVCAR-4 ovarian was greater than 100 µM in each case. Moreover, the TGI in the test on SNB-19 CNS and with TK-10 renal was greater than 100 µM each time.
In the case of `CCN(CC)CCNc1ccc2nc(C)n3c4ccc(O)cc4c(=O)c1c23`, the TGI was determined as 10.4 µM in the test with 786-0 renal; 3.78 µM with ACHN renal; 1.83 µM with NCI-H460 lung; 3.87 µM with OVCAR-4 ovarian; 3.26 µM in the test with SNB-19 CNS.
For the compound `Cc1ccccc1C1CC(c2ccccc2)=NO1` (centres undefined), the TGI in the test on 786-0 renal, with ACHN renal, in the test on CCRF-CEM leukemia, in the test with NCI-H23 lung, in the test with NCI-H460 lung and in the test on OVCAR-4 ovarian was greater than 100 µM each time. Further, the TGI with SNB-19 CNS and in the test with TK-10 renal was greater than 100 µM throughout.
As to `c1ccc(N/N=C2\NN=C(c3ccccc3)CS2)cc1`, the TGI with 786-0 renal was determined as 33.6 µM; with ACHN renal, 19.1 µM; in the test with CCRF-CEM leukemia, 54.9 µM; with NCI-H23 lung it was 52.3 µM; in the test with NCI-H460 lung, 51.4 µM; in the test with RXF 393 renal, 25.1 µM. Also, the TGI was determined as 85.9 µM with SNB-19 CNS and 26.5 µM with TK-10 renal.
For the compound `C1C[OH+]CC[OH+]CCNCC[OH+]CC[OH+]CCN1.Cl.[Cl-].[Pt+4]`, the GI50 in the test with 786-0 renal was greater than 100 µM; in the test with ACHN renal it was greater than 100 µM; in the test with CCRF-CEM leukemia, greater than 100 µM; in the test on NCI-H23 lung, 5.27 µM; with NCI-H460 lung it was greater than 100 µM; with RXF 393 renal, 1660 nM. In addition, the GI50 in the test with SNB-19 CNS and with TK-10 renal was greater than 100 µM in each case. The TGI in the test on 786-0 renal is greater than 100 µM; with ACHN renal, greater than 100 µM; in the test with CCRF-CEM leukemia, greater than 100 µM; in the test with NCI-H23 lung it was 25 µM; in the test on NCI-H460 lung it was greater than 100 µM; in the test with RXF 393 renal, 4.13 µM. The TGI in the test with SNB-19 CNS and with TK-10 renal was greater than 100 µM each time.
For `CCOC1CC2OC(=O)C1C=C2C(=O)OC` (centres undefined), the TGI was 75.9 µM in the test on 786-0 renal; greater than 100 µM with ACHN renal; 56.6 µM in the test on CCRF-CEM leukemia; 44.2 µM in the test with NCI-H23 lung; greater than 100 µM in the test with NCI-H460 lung; 57.4 µM in the test with OVCAR-4 ovarian. Besides, the values for the TGI with SNB-19 CNS and in the test with TK-10 renal were greater than 100 µM and 84.1 µM, respectively.
With `CCN(CC)CCn1c2ccccc2c(=O)c2c(OC)ccc(OC)c21`, the TGI in the test on 786-0 renal, in the test with ACHN renal, in the test with CCRF-CEM leukemia, with NCI-H23 lung, in the test on NCI-H460 lung and with OVCAR-4 ovarian was greater than 100 µM in each case. The TGI was 81.5 µM in the test with RXF 393 renal and greater than 100 µM in the test on SNB-19 CNS.
Consider `CCOCc1cc(=O)c2c(OC)cc3c(c2o1)CCC(C)(C)O3`, for which the TGI in the test on 786-0 renal, in the test on ACHN renal, in the test on CCRF-CEM leukemia, with NCI-H23 lung, in the test on NCI-H460 lung and with OVCAR-4 ovarian was greater than 100 µM each time. Also, the TGI in the test on RXF 393 renal and in the test on TK-10 renal was greater than 100 µM each time.
As for `CC(C)C1N2CCCCC2[C@@H]2c3[nH]c4ccccc4c3CCN12` (some centres undefined), the TGI in the test with 786-0 renal, in the test on ACHN renal, with CCRF-CEM leukemia, in the test on NCI-H23 lung, in the test on NCI-H460 lung and in the test with OVCAR-4 ovarian was greater than 100 µM in each case. The TGI with RXF 393 renal and with SNB-19 CNS was greater than 100 µM throughout.
With `CCN=C(C#N)NCC`, the TGI in the test with 786-0 renal, in the test on ACHN renal, with CCRF-CEM leukemia, in the test with NCI-H23 lung, in the test on NCI-H460 lung and in the test with OVCAR-4 ovarian was greater than 100 µM each time. For the same compound, the TGI in the test on SNB-19 CNS and in the test on TK-10 renal was greater than 100 µM throughout.
Turning to `c1ccc2c(NCCCCCCNc3cccc4ccccc34)cccc2c1`, the TGI with 786-0 renal, with ACHN renal, with CCRF-CEM leukemia, in the test on NCI-H23 lung, in the test on NCI-H460 lung and with OVCAR-4 ovarian was greater than 100 µM in each case. Moreover, the TGI with SNB-19 CNS and with TK-10 renal was greater than 100 µM each time.
Consider `Cc1ccc(NC(=O)OCC(COc2ccc(Cl)cc2Cl)OC(=O)Nc2ccc(C)cc2)cc1` (centres undefined), for which the TGI in the test on 786-0 renal, in the test with ACHN renal, in the test with NCI-H23 lung, in the test on NCI-H460 lung, in the test on OVCAR-4 ovarian and with RXF 393 renal was greater than 100 µM throughout. For the same compound, the TGI in the test with SNB-19 CNS is greater than 100 µM.
Consider `Cn1cnc([N+](=O)[O-])c1Sc1nccc(=O)[nH]1`, for which the TGI in the test on 786-0 renal, in the test with ACHN renal, in the test on CCRF-CEM leukemia, with NCI-H23 lung, in the test with NCI-H460 lung and in the test on OVCAR-4 ovarian was greater than 100 µM throughout. Further, the TGI in the test on SNB-19 CNS and with TK-10 renal was greater than 100 µM each time.
For `COc1cc(/C=C2/C(=O)N(C(=O)OCc3ccccc3)C(Cc3cc(OC)c(OC)c(C)c3OC)C(=O)N2Cc2ccccc2)c(OC)c(C)c1OC` (centres undefined), the TGI in the test with 786-0 renal, in the test on ACHN renal, in the test on NCI-H23 lung, in the test on NCI-H460 lung, with OVCAR-4 ovarian and in the test with RXF 393 renal was greater than 100 µM in each case. In addition, the TGI with SNB-19 CNS and in the test with TK-10 renal was greater than 100 µM each time.
Take `CC1CC[P+](c2ccccc2)(c2ccccc2)CC1`: the TGI with 786-0 renal, with ACHN renal, with CCRF-CEM leukemia, in the test with NCI-H23 lung, with NCI-H460 lung and in the test with RXF 393 renal was greater than 100 µM in each case. The TGI in the test on SNB-19 CNS and in the test on TK-10 renal was greater than 100 µM throughout.
